Source: ChEMBL document CHEMBL1131518, “Methionine analogues as inhibitors of methionyl-tRNA synthetase” (1998)
≈ marks a conversion by molar mass, not a printed value. Each block holds one compound with its values, some of them ahead of it.

Columns and labels:
[1] = biological target: Methionine--tRNA ligase (Escherichia coli K-12) (UniProt P00959); experiment: Ability to inhibit Escherichia coli methionyl-tRNA synthetase was determined at a concentration of 270 uM
[2] = tested on: Proteus vulgaris; experiment: Antimicrobial activity against Proteus vulgaris 6059 was determined; assay type: functional
[3] = tested on: Serratia marcescens; experiment: Antimicrobial activity against Serratia marcescens 1826E was determined; assay type: functional
[4] = tested on: Staphylococcus aureus; experiment: Antimicrobial activity against Staphylococcus aureus 1538p was determined; assay type: functional
[5] = tested on: Klebsiella pneumoniae; experiment: Antimicrobial activity against Klebsiella pneumoniae 2011E was determined; assay type: functional
[6] = tested on: Enterococcus faecalis; experiment: Antimicrobial activity against Enterococcus faecalis 29212 was determined; assay type: functional
[7] = tested on: Escherichia coli; experiment: Antimicrobial activity against Escherichia coli JM109 was determined; assay type: functional
[8] = tested on: Pseudomonas aeruginosa; experiment: Antimicrobial activity against Pseudomonas aeruginosa 1912E was determined; assay type: functional
[9] = tested on: Salmonella typhimurium; experiment: Antimicrobial activity against Salmonella Typhimurium 14028 was determined; assay type: functional, Salmonella enterica subsp. enterica serovar Typhimurium; details: Salmonella enterica
[10] = tested on: Citrobacter freundii; experiment: Antimicrobial activity against Citrobacter freundii 8090 was determined; assay type: functional
[11] = tested on: Bacillus subtilis; experiment: Antimicrobial activity against Bacillus subtilis ATCC 6633 was determined; assay type: functional

Chain of Methionine--tRNA ligase (Escherichia coli K-12) (P00959 2-677 limits assumed): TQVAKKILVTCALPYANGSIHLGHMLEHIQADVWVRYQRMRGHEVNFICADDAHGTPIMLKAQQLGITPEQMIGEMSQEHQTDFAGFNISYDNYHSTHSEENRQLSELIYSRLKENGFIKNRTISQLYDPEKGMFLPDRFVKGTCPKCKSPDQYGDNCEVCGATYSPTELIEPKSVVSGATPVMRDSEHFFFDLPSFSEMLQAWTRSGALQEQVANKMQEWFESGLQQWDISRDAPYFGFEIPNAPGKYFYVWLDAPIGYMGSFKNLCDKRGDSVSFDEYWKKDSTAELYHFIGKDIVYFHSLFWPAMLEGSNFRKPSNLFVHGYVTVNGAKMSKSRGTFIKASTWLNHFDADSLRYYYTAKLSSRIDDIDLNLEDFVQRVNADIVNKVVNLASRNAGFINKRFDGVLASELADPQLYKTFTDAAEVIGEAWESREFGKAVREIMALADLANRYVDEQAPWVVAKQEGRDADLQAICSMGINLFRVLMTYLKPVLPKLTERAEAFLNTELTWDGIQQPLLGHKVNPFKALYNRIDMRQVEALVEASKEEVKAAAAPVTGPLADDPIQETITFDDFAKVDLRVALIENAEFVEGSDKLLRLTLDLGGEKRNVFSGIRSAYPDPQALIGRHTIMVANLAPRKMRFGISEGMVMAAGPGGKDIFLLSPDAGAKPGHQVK

inhibition [1]: 7.8%
Compound: CSCCC#N

inhibition [1]: 4.7%
Compound: CSCCC=O

inhibition [1]: 0.4%
Compound: COC(=O)CC(=O)CCSC

inhibition [1]: 0%
Compound: CSCC[C@H](N)C(=O)C(C)C

inhibition [1]: 17.8%
Compound: CSCC[C@H](N)C(N)=O

MIC [2]: 4 µg/mL (≈ 24.4 µM)
MIC [3]: > 128 µg/mL
MIC [4]: > 128 µg/mL
MIC [5]: > 128 µg/mL
MIC [6]: > 128 µg/mL
MIC [7]: 2 µg/mL (≈ 12.2 µM)
MIC [8]: > 128 µg/mL
MIC [9]: > 128 µg/mL
MIC [10]: 8 µg/mL (≈ 48.7 µM)
MIC [11]: > 128 µg/mL
Compound: CSCCC(N)C(=O)NO (stereo not drawn)

inhibition [1]: 1.8%
Compound: CSCCc1cc(O)[nH]n1

inhibition [1]: 23.1%
Compound: CSCC[C@H](N)C(=O)NCO

inhibition [1]: 56.2%
Compound: CSCC[C@H](N)C(=O)NOC(C)(C)C

inhibition [1]: 20.4%
Compound: COC(=O)[C@@H](N)CCSC

inhibition [1]: 0%
Compound: CSCCCO

inhibition [1]: 0%
Compound: CSCCCCO

inhibition [1]: 5.9%
Compound: CSCCC(=O)O

inhibition [1]: 8.3%
Compound: CSCCc1n[nH]cc1C(=O)O

inhibition [1]: 16.2%
Compound: CSCCc1nn[nH]n1

inhibition [1]: 3.8%
Compound: COC(=O)CCSC

Further lines, the compound ahead of its results:

Compound: CSCCC(N)C(=O)Nc1ccc2ccccc2c1 (stereo not drawn)
inhibition [1]: 22.3%

Compound: CSCC[C@H](NC(=O)OC(C)(C)C)C(=O)NOC(=O)OC(C)(C)C
inhibition [1]: 0%

Compound: CSCC[C@H](N)C(=O)Nc1cccc([N+](=O)[O-])c1
inhibition [1]: 0%

Compound: CCOC(=O)c1c[nH]nc1CCSC
inhibition [1]: 0%

Compound: CSCC[C@H](NC(=O)OC(C)(C)C)C(=O)O
inhibition [1]: 11.3%

Compound: CSCC[C@H](N)C(=O)Nc1ccc([N+](=O)[O-])cc1
inhibition [1]: 33.5%

Compound: CS(=O)(=O)CC[C@H](N)C(=O)NO
inhibition [1]: 0%

Compound: C[S+]([O-])CC[C@H](N)C(=O)NO (stereo partly drawn)
inhibition [1]: 8.5%

Compound: CSCC[C@H](N)C(=O)NO.O=C(O)C(F)(F)F
MIC [2]: 2 µg/mL
inhibition [1]: 81.5%
MIC [3]: > 128 µg/mL
MIC [4]: > 128 µg/mL
MIC [5]: > 128 µg/mL
MIC [6]: > 128 µg/mL
MIC [7]: 1 µg/mL
MIC [8]: > 128 µg/mL
MIC [9]: > 128 µg/mL
MIC [10]: 8 µg/mL
MIC [11]: > 128 µg/mL

Compound: CSCCC(=O)Cl
inhibition [1]: 14%

Compound: CSCCC(N)C(=O)NO.O=C(O)C(F)(F)F (stereo not drawn)
MIC [2]: > 128 µg/mL
MIC [3]: > 128 µg/mL
MIC [4]: > 128 µg/mL
MIC [5]: > 128 µg/mL
MIC [6]: > 128 µg/mL
MIC [7]: > 128 µg/mL
MIC [8]: > 128 µg/mL
MIC [9]: > 128 µg/mL
MIC [10]: > 128 µg/mL
MIC [11]: > 128 µg/mL

Compound: CSCCN1C(=O)c2ccccc2S1(=O)=O
inhibition [1]: 16.3%

Compound: CSCCO
inhibition [1]: 3.2%

Compound: CSCC[C@H](NC(=O)OC(C)(C)C)C(=O)NO
inhibition [1]: 11.4%
